The record followed here is ChEMBL document CHEMBL5500422, “New Horizons of Synthetic Lethality in Cancer: Current Development and Future Perspectives” (J Med Chem, 2024).

Data set [1] can be described thus: Antiproliferative activity against human UWB1289 cells harboring BRCA1 assessed inhibition of cell growth incubated for 48 hrs by MTT assay. The class given is functional, cell-based. Conditions: UWB1289, 48 h. (Formazan colour is commonly taken as a measure of viable cells.)
In data set [2] the target is DNA-dependent protein kinase catalytic subunit (Homo sapiens, UniProt P78527).
Description: Inhibition of DNA-PK in human HCT-116 cells measured after 1 hr by Bradford assay
The nature of data set [3]: Intrinsic clearance in human liver microsomes. The class given is ADME, Microsome. (Microsomes from liver hold many membrane-bound enzymes, among them those of drug oxidation.)
In data set [4] the target is von Hippel-Lindau disease tumor suppressor/SWI/SNF-related matrix-associated actin-dependent regulator of chromatin subfamily A member 2 (Homo sapiens) (UniProt P51531+P40337). The data set can be described thus: PROTAC activity at VHL/SMARCA2 in human NCI-H838 cells assessed as induction of SMARCA2 degradation at 0.001 to 1000 nM incubated for 24 hrs by Western blotting analysis relative to control. Format: cell-based. Conditions: dose 0.001-1000 nM. For orientation: Immunoblotting shows a protein as a band on a membrane.

The target in data set [5] is von Hippel-Lindau disease tumor suppressor/SWI/SNF-related matrix-associated actin-dependent regulator of chromatin subfamily A member 4 (Homo sapiens) (UniProt P51532+P40337). The data set can be described thus: PROTAC activity at VHL/SMARCA4 in human MV4-11 cells assessed as induction of SMARCA4 degradation by measuring maximal efficacy incubated for 18 hrs by Western blotting analysis relative to control. Format: cell-based.

The target in data set [6] is T1, Ubiquitin carboxyl-terminal hydrolase 1 (Homo sapiens, UniProt O94782).
T1 sequence (O94782 whole entry): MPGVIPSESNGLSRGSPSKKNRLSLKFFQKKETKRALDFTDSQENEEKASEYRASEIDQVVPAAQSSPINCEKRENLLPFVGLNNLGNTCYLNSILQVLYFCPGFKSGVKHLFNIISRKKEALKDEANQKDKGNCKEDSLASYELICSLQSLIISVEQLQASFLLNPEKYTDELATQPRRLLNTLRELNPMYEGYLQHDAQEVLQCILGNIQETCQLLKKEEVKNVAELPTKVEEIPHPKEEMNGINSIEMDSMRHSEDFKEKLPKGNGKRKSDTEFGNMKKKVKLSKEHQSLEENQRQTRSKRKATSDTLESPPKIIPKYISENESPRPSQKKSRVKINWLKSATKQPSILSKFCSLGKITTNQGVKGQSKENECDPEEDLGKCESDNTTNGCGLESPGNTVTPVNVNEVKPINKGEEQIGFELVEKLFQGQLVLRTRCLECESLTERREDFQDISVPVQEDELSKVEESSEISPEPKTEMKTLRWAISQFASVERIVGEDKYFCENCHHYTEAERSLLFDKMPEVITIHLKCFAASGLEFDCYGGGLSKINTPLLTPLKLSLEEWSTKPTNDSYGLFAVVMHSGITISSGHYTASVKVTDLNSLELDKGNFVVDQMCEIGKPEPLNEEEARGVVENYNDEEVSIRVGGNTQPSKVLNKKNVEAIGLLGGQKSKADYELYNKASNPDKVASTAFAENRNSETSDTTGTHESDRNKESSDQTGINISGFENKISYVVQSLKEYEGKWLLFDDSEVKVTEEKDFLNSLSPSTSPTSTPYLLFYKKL
Put plainly: Inhibition of human recombinant USP1 expressed in baculovirus expressed in Bac-to-Bac baculovirus expression system.

Data set [7] deals with T2, DNA repair protein RAD52 homolog (Homo sapiens, UniProt P43351).
T2 sequence (P43351 whole entry): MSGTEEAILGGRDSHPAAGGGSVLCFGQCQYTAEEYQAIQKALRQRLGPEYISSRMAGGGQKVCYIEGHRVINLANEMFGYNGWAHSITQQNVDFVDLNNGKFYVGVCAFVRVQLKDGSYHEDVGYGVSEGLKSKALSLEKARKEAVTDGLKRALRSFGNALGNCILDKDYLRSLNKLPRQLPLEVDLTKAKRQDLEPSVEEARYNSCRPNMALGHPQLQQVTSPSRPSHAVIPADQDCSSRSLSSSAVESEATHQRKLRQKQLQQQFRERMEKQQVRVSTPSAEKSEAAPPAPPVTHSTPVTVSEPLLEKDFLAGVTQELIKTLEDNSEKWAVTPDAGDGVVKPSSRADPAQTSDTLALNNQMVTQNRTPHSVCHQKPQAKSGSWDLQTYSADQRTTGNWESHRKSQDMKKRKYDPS
The data set can be described thus: Inhibition of RAD52 (unknown origin) by FRET analysis.

The next data set concerns LoVo. The data set can be described thus: Antiproliferative activity against human LoVo cells assessed as reduction in cell viability measured for 48 hrs byT assay. Format: functional, cell-based.
The next data set deals with HEK293. The data set can be described thus: Antiproliferative activity against HEK293 cells assessed as inhibition of cell growth incubated for 48 hrs by CCK8 assay. The class given is functional, cell-based. Conditions: Homo sapiens, HEK293, 48 h.
Data set [8] can be described thus: Intrinsic clearance in mouse liver microsomes. The class given is ADME, Microsome.

Chain of von Hippel-Lindau disease tumor suppressor/SWI/SNF-related matrix-associated actin-dependent regulator of chromatin subfamily A member 4 (Homo sapiens) (P40337 whole entry, looked up): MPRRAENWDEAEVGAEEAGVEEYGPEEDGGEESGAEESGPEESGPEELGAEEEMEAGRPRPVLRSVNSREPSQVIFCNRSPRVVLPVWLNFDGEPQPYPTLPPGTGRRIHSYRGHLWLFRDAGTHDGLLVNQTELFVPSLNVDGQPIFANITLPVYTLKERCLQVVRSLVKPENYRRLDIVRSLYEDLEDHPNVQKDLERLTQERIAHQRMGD
Chain of von Hippel-Lindau disease tumor suppressor/SWI/SNF-related matrix-associated actin-dependent regulator of chromatin subfamily A member 4 (Homo sapiens) (P51532 whole entry, looked up): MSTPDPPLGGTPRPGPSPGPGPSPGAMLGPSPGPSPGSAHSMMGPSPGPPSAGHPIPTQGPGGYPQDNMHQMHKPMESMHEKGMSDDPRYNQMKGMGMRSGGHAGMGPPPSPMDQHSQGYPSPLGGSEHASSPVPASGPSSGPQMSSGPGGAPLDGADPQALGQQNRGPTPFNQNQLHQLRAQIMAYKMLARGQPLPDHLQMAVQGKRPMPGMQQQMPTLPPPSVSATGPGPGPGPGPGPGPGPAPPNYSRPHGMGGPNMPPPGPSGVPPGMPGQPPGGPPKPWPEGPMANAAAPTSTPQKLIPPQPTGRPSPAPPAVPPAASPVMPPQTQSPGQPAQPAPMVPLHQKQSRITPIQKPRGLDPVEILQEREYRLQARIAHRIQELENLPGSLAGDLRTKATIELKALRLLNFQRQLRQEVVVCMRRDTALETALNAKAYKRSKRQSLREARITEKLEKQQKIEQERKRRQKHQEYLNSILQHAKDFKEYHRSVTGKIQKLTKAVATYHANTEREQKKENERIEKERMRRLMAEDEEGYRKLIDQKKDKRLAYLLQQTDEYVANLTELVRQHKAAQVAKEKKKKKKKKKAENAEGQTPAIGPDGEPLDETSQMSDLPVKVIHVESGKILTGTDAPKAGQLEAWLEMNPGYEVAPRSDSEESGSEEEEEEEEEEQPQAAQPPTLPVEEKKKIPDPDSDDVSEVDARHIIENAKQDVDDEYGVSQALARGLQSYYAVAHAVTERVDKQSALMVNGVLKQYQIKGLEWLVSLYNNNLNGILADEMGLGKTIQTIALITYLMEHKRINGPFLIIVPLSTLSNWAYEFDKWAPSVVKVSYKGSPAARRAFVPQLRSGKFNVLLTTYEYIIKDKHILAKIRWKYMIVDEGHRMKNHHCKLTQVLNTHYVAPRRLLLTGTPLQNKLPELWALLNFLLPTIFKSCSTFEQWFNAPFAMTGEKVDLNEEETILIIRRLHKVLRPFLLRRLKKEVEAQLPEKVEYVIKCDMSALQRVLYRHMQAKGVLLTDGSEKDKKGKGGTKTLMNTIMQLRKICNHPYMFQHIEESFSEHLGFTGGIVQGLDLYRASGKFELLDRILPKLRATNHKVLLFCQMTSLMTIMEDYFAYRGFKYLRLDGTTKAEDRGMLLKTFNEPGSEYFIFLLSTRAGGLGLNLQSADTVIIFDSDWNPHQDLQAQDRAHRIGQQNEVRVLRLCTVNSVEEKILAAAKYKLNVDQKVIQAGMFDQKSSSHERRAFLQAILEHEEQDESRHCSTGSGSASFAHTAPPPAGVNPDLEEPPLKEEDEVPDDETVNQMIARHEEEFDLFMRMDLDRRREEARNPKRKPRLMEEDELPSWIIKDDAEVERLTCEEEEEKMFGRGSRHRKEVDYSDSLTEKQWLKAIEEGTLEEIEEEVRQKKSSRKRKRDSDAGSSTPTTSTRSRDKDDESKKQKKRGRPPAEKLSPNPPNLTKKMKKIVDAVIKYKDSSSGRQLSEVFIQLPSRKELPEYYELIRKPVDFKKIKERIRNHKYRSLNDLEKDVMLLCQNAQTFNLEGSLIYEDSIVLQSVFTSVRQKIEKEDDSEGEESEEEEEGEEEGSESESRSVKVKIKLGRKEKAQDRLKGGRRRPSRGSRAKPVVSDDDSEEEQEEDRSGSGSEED
Chain of von Hippel-Lindau disease tumor suppressor/SWI/SNF-related matrix-associated actin-dependent regulator of chromatin subfamily A member 2 (Homo sapiens) (P40337 whole entry, looked up): as the sequence (P40337 whole entry, looked up) above
Chain of von Hippel-Lindau disease tumor suppressor/SWI/SNF-related matrix-associated actin-dependent regulator of chromatin subfamily A member 2 (Homo sapiens) (P51531 whole entry, looked up): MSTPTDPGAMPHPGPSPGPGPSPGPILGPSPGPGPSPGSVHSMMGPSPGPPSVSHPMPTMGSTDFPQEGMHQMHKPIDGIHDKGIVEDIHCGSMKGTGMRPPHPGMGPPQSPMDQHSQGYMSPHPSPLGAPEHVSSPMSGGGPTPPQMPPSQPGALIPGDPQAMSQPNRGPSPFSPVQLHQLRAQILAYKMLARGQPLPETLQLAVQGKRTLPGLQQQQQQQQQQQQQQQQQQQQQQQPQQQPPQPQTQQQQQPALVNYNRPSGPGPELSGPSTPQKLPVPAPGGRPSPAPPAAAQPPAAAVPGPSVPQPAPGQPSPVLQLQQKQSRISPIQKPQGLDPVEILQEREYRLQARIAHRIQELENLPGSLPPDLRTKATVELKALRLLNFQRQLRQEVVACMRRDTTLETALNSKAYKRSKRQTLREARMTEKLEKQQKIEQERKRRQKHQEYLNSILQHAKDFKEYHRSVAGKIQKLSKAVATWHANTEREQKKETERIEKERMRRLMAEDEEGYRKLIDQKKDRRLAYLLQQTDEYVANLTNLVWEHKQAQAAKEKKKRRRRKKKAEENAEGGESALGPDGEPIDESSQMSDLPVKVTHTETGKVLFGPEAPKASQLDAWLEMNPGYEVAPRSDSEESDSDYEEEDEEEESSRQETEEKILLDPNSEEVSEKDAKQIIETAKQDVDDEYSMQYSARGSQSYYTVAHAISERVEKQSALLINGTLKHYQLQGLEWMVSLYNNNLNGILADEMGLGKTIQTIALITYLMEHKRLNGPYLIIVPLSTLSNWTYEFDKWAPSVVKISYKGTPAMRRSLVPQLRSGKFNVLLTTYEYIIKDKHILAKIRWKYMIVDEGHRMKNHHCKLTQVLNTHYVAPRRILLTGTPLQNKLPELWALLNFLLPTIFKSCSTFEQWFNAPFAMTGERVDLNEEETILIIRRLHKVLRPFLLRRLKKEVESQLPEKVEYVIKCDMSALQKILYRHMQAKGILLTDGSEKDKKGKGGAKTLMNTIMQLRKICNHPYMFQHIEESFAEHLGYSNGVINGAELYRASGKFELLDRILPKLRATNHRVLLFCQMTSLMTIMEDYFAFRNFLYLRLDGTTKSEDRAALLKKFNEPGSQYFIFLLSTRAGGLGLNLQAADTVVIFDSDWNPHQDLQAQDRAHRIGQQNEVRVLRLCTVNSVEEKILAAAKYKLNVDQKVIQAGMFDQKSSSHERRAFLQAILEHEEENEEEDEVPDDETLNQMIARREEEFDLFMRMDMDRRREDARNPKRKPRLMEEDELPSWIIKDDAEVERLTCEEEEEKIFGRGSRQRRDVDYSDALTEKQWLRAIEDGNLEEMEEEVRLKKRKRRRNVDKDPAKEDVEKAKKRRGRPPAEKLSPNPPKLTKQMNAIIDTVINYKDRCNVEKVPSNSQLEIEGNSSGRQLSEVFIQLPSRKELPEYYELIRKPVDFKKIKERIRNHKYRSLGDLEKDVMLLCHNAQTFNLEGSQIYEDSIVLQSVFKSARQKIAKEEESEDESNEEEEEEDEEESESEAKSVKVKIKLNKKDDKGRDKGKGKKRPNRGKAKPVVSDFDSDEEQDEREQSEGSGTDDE

Turning to `Cc1cccc(N(C)C(=O)[C@@H]2[C@H](O)CCN2c2nc(C)cc(C(F)(F)F)c2C#N)c1`, the IC50 (in general, the midpoint of a concentration-inhibition curve) in data set [1] came out at 7.9 nM. `CC(C)NCCOc1ncc(-c2cc3c4c(cnc3cc2F)N(C)C(=O)C42CCC2)cc1NS(C)(=O)=O` yielded an IC50 in data set [2] of 0.89 nM. In data set [3], `Cc1ncc(Cn2c(=O)c3cc(S(=O)(=O)NC4(C)CC4)ccc3n(CC3CC3)c2=O)s1` came in with a CLH of 78 µL/min/mg. On to `Cc1ncsc1-c1ccc([C@H](CC[C@H](C)CCN2CCC(c3ccc4c(c3)n(C3CCCC3)c3nc(=O)c5c(Br)cccc5n43)CC2)NC(=O)[C@@H]2C[C@@H](O)CN2C(=O)[C@@H](NC(=O)C2(F)CC2)C(C)(C)C)cc1`, for which the values for the Emax in [4] and in [5] were 81% and 67%, respectively. With `CC(C)c1ccccc1-c1ncc2[nH]c(=O)n(Cc3ccc(-c4nc(C(F)(F)F)cn4C)cc3)c2n1`, the IC50 in [6] was found to be 4.1 nM. For the compound `COc1ccccc1NS(=O)(=O)c1cc(C(=O)O)ccc1C`, 2000 nM corresponded to half-maximal inhibition in data set [7] (IC50). Turning to `Nc1nn2cc(F)cnc2c1C(=O)Nc1cncc(F)c1N1CCC(C(=O)N2CCN(C3COC3)CC2)CC1` [M4344], the 50% inhibitory concentration (IC50) in the data set with LoVo stood at 86 nM.

`O=C(Cn1cccc([N+](=O)[O-])c1=O)c1c[nH]c2ccccc12` gave a concentration for half-maximal inhibition (IC50) in data set [7] of 2000 nM. For the compound `C[C@@H]1COCCN1c1cc(N=[S@@](C)(=O)C2CC2)nc(-c2ccnc(N)c2)n1`, the 50% inhibitory concentration (IC50) in the data set on HEK293 worked out at 7900 nM. `Cn1c(=O)c2cc(S(=O)(=O)NC3(C)CC3)ccc2n(C)c1=O` displayed a CLH in [8] of 211 µL/min/mg.
